Measured values taken from ChEMBL document CHEMBL5532744, “2-Aminopyridines as Potent and Selective Nav1.8 Inhibitors Exhibiting Efficacy in a Nonhuman Primate Pain Model” (ACS Med Chem Lett, 2024).
pEC50, pIC50: −log10 of the molar value. Converted amounts (≈) assume the structure as drawn.

Tests used:
[1] = Half-life in rat plasma at 0.05 mg/kg, iv administered as cassette dose; type: ADME, organism-based
[2] = Solubility of the compound at pH 7; type: physicochemical; settings: buffer
[3] = Unbound clearance in rat at 0.05 mg/kg, iv administered as cassette dose; type: ADME, organism-based; settings: in vivo
[4] = molecular target: Sodium channel protein type 10 subunit alpha (Homo sapiens, UniProt Q9Y5Y9); test: Inhibition of recombinant human Nav1.8 expressed in HEK293 cells by whole cell patch clamp method; type: cell-based
[5] = molecular target: Sodium channel protein type 9 subunit alpha (Homo sapiens, UniProt Q15858); test: Inhibition of Nav1.7 (unknown origin)
[6] = molecular target: Sodium channel protein type 5 subunit alpha (Homo sapiens, UniProt Q14524); test: Inhibition of Nav1.5 (unknown origin)
Chain of Sodium channel protein type 5 subunit alpha (Q14524 whole entry): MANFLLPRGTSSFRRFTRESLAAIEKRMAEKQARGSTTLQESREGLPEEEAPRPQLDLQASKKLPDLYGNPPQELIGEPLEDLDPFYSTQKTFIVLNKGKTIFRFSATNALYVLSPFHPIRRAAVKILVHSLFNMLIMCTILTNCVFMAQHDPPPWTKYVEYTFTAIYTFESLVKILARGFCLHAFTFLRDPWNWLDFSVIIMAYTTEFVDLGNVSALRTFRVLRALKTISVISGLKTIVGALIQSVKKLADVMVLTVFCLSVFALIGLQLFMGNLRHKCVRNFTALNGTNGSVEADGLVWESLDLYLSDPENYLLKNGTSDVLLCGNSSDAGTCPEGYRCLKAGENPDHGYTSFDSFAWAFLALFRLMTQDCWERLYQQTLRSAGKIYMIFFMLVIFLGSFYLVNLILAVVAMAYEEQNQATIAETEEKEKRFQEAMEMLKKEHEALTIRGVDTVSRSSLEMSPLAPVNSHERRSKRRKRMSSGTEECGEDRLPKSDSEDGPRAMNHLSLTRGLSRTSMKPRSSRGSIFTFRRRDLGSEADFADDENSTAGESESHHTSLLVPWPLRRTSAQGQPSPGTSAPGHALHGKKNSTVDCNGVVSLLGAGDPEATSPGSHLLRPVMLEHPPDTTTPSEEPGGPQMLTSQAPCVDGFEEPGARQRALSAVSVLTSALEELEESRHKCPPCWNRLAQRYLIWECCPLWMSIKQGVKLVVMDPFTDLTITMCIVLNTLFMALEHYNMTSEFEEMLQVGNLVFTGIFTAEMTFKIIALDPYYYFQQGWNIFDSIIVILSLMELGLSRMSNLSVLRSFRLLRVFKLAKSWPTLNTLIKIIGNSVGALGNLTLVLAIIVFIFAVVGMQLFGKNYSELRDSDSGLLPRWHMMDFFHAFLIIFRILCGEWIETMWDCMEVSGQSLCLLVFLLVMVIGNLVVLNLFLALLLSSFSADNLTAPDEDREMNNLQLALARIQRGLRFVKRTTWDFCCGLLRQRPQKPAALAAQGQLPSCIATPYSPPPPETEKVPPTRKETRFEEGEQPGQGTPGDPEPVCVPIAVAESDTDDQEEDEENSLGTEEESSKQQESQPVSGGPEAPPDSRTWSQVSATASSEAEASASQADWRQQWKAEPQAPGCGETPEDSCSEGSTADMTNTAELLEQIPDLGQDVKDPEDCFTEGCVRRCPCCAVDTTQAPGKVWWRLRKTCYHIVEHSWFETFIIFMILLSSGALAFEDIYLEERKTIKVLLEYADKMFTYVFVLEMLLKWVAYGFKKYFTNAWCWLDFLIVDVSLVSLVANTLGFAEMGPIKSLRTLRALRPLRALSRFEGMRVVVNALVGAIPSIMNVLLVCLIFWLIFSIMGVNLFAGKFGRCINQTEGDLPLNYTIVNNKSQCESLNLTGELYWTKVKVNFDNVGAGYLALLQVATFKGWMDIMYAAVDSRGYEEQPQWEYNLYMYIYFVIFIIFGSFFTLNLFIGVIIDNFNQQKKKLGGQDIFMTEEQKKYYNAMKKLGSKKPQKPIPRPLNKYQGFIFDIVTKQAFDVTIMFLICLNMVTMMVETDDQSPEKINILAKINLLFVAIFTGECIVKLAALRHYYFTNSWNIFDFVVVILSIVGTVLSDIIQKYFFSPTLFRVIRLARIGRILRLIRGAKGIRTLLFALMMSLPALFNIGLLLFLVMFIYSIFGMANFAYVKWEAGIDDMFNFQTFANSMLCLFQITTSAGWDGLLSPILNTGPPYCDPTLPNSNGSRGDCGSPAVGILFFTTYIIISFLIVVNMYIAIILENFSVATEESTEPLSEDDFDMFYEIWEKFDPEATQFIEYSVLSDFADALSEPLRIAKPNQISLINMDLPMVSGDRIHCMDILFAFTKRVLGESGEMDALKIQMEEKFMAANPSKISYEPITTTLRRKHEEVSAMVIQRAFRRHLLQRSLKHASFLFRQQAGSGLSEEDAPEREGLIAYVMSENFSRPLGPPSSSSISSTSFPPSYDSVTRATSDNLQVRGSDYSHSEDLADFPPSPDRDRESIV

[7] = molecular target: Sodium channel protein type 10 subunit alpha (Rattus norvegicus, UniProt Q62968); test: Inhibition of rat neuronal Nav1.8 by patch clamp electrophysiology
[8] = molecular target: Sodium channel protein type 8 subunit alpha (Homo sapiens, UniProt Q9UQD0); test: Inhibition of Nav1.6 (unknown origin)
Chain of Sodium channel protein type 8 subunit alpha (Q9UQD0 whole entry): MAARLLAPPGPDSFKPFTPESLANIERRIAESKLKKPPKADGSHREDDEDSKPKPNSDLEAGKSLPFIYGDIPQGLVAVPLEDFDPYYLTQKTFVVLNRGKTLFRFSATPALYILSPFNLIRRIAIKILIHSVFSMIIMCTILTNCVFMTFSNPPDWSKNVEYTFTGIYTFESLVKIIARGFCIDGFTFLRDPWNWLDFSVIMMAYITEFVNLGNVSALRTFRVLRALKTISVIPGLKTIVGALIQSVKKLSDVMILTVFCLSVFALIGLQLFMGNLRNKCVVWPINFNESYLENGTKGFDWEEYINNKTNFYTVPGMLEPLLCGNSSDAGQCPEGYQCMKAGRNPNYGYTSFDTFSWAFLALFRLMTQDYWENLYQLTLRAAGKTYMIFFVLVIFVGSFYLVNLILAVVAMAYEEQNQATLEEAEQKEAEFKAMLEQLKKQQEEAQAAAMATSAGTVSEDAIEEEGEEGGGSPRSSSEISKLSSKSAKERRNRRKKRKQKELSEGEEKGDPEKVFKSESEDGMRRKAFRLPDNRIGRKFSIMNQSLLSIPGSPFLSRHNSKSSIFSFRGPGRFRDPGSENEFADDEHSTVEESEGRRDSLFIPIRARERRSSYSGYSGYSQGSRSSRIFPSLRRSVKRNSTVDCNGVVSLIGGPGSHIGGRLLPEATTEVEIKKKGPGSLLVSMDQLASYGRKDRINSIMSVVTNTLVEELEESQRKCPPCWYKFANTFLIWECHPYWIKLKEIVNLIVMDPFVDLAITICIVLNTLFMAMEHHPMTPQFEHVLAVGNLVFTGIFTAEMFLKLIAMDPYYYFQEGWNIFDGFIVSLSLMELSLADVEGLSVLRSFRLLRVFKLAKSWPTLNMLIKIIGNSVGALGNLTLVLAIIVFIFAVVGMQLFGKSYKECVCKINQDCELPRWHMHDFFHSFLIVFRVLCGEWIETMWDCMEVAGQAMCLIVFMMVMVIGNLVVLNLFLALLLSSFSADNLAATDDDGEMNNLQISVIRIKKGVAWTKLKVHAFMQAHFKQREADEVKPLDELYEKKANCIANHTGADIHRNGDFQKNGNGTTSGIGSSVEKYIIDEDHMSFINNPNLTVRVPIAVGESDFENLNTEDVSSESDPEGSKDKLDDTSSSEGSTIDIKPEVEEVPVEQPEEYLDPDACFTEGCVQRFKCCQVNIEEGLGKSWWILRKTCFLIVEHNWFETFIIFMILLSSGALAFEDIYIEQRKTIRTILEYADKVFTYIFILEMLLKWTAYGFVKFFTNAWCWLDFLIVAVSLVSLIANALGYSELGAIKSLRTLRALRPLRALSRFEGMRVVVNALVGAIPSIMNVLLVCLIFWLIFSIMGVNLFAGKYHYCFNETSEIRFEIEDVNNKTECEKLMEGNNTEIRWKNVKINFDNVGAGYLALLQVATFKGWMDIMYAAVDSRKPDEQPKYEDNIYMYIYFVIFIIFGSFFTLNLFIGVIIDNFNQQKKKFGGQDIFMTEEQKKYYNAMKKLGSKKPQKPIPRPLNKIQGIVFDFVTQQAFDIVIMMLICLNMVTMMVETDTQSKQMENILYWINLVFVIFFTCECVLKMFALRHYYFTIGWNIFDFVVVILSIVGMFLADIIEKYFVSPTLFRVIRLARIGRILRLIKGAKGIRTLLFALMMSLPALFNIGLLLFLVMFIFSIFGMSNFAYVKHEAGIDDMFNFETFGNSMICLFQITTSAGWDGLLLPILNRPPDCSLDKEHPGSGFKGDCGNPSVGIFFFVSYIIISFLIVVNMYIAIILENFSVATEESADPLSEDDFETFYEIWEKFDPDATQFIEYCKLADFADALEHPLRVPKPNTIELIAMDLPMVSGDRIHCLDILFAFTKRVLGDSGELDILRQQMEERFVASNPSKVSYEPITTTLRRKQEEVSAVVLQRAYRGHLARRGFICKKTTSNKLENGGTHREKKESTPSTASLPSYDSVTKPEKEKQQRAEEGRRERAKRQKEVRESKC

[9] = Volume of distribution in rat at 2 mg/kg, iv; type: ADME, organism-based; settings: in vivo
[10] = Half life in dog at 2 mg/kg, po or 1 mg/kg, iv; type: ADME, organism-based, Canis lupus familiaris; settings: in vivo
[11] = molecular target: Sodium channel protein type 2 subunit alpha (Homo sapiens, UniProt Q99250); test: Inhibition of Nav1.2 (unknown origin)
[12] = Clearance in rat at 2 mg/kg, iv; type: ADME, organism-based; settings: in vivo
[13] = Bioavailability in dog at 2 mg/kg, po or 1 mg/kg, iv; type: ADME, organism-based, Canis lupus familiaris; settings: in vivo
[14] = Drug concentration in rhesus monkey plasma at 6 mg/kg, po; type: ADME, organism-based, Macaca mulatta; settings: in vivo
[15] = molecular target: Voltage-gated inwardly rectifying potassium channel KCNH2 (Homo sapiens, UniProt Q12809); test: Inhibition of hERG; type: toxicity
Chain of Voltage-gated inwardly rectifying potassium channel KCNH2 (Q12809 whole entry): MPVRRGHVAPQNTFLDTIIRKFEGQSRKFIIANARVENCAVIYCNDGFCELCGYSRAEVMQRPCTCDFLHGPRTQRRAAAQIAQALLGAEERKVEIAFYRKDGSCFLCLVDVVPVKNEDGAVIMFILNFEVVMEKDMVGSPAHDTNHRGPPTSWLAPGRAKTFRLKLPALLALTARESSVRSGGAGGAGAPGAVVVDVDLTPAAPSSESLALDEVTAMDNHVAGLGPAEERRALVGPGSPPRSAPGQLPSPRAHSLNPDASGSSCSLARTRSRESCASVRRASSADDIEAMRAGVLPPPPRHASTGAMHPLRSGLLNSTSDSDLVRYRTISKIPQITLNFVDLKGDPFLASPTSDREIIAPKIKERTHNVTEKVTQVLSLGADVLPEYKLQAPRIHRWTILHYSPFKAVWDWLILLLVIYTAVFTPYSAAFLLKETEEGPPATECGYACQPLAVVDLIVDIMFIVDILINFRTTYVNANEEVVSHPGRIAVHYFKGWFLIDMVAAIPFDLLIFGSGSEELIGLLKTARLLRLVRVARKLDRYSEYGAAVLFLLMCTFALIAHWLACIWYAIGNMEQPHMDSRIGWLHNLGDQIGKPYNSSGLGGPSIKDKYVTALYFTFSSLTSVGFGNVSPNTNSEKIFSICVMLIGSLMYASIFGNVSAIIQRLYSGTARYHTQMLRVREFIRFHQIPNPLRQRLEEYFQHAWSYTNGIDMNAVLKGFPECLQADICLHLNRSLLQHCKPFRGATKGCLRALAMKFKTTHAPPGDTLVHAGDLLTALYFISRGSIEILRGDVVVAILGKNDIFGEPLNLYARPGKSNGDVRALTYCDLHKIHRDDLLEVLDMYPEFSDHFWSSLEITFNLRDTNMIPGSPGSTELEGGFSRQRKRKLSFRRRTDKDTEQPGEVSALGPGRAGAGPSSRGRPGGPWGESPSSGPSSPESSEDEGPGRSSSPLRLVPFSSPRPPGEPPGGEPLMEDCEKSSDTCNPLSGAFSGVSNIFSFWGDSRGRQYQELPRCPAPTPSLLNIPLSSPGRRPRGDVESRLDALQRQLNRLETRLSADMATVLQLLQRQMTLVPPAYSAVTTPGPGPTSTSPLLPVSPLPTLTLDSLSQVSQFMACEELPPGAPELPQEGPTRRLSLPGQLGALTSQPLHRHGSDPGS

[16] = Tmax in rat at 10 mg/kg, po or 2 mg/kg, iv; type: ADME, organism-based; settings: in vivo
[17] = Drug concentration in rhesus monkey plasma at 2 mg/kg, po; type: ADME, organism-based, Macaca mulatta; settings: in vivo
[18] = Unbound drug concentration in rhesus monkey plasma at 2 mg/kg, po; type: ADME, organism-based, Macaca mulatta; settings: in vivo
[19] = Volume of distribution in rhesus monkey at 1 mg/kg, iv; type: ADME, organism-based, Macaca mulatta; settings: in vivo
[20] = Tmax in rhesus monkey at 2 mg/kg, po or 1 mg/kg, iv; type: ADME, organism-based, Macaca mulatta; settings: in vivo
[21] = Unbound volume of distribution in rhesus monkey at 2 mg/kg, po; type: ADME, organism-based, Macaca mulatta; settings: in vivo
[22] = Unbound drug concentration in rhesus monkey plasma at 18 mg/kg, po; type: ADME, organism-based, Macaca mulatta; settings: in vivo
[23] = Volume of distribution in dog at 1 mg/kg, iv; type: ADME, organism-based, Canis lupus familiaris; settings: in vivo
[24] = Unbound drug concentration in rhesus monkey plasma at 6 mg/kg, po; type: ADME, organism-based, Macaca mulatta; settings: in vivo
[25] = Unbound clearance in rhesus monkey at 2 mg/kg, po; type: ADME, organism-based, Macaca mulatta; settings: in vivo
[26] = molecular target: Voltage-dependent L-type calcium channel subunit alpha-1C (Homo sapiens, UniProt Q13936); test: Inhibition of Cav1.2 (unknown origin)
[27] = Apparent permeability of compound; type: ADME; settings: not told
[28] = Unbound clearance in rat at 10 mg/kg, po; type: ADME, organism-based; settings: in vivo
[29] = Unbound volume of distribution in dog at 2 mg/kg, po; type: ADME, organism-based, Canis lupus familiaris; settings: in vivo
[30] = Unbound volume of distribution in rat at 10 mg/kg, po; type: ADME, organism-based; settings: in vivo
[31] = Bioavailability in rat at 10 mg/kg, po or 2 mg/kg, iv; type: ADME, organism-based; settings: in vivo
[32] = Half life in rhesus monkey at 2 mg/kg, po or 1 mg/kg, iv; type: ADME, organism-based, Macaca mulatta; settings: in vivo
[33] = Drug concentration in rhesus monkey plasma at 18 mg/kg, po; type: ADME, organism-based, Macaca mulatta; settings: in vivo
[34] = Tmax in dog at 2 mg/kg, po or 1 mg/kg, iv; type: ADME, organism-based, Canis lupus familiaris; settings: in vivo
[35] = Clearance in dog at 1 mg/kg, iv; type: ADME, organism-based, Canis lupus familiaris; settings: in vivo
[36] = Clearance in rhesus monkey at 1 mg/kg, iv; type: ADME, organism-based, Macaca mulatta; settings: in vivo
[37] = Bioavailability in rhesus monkey at 2 mg/kg, po or 1 mg/kg, iv; type: ADME, organism-based, Macaca mulatta; settings: in vivo
[38] = Unbound clearance in dog at 2 mg/kg, po; type: ADME, organism-based, Canis lupus familiaris; settings: in vivo
[39] = Half life in rat at 10 mg/kg, po or 2 mg/kg, iv; type: ADME, organism-based; settings: in vivo

Q: With `NS(=O)(=O)c1cccc(NC(=O)c2cc(C(F)(F)F)cnc2N2CCCCC2)c1` as the compound, how does the half-life [1] read?
A: The half-life was 1.5 h.

Q: And the solubility [2]?
A: The solubility was 120 µM (≈ 51.4 µg/mL).

Q: What about the CL free [3] of the same compound?
A: Its CL free is 370 mL/min/kg.

Q: What about the pEC50 [4] of the same compound?
A: The pEC50 was 6.66.

Q: With `NS(=O)(=O)c1cccc(NC(=O)c2cc(C(F)(F)F)cnc2N2CCCC(F)(F)C2)c1` as the compound, how does the half-life [1] read?
A: Its half-life is 1.1 h.

Q: What about the solubility [2] of the same compound?
A: The solubility was 160 µM (≈ 74.3 µg/mL).

Q: And the CL free [3]?
A: The CL free was 210 mL/min/kg.

Q: What about the pEC50 [4] of the same compound?
A: Its pEC50 is 6.62.

Q: With `COc1ccccc1NC(=O)c1nc2ccccc2nc1N1CCCCC1` as the compound, how does the pIC50 [5] read?
A: The pIC50 was under 4.52.

Q: What about the pEC50 [6] of the same compound?
A: The pEC50 was under 4.52.

Q: And the pIC50 [7]?
A: The pIC50 was 4.68.

Q: And the pEC50 [8]?
A: The pEC50 was under 4.52.

Q: With `NS(=O)(=O)c1cccc(NC(=O)c2cccnc2N2CCCCC2)c1` as the compound, how does the pEC50 [4] read?
A: Its pEC50 is 4.66.

Q: Which results are given for `NS(=O)(=O)c1cccc(NC(=O)c2cc(C(F)(F)F)cnc2N2CCC3(CC2)CC3)c1`?
A: half-life [1]: 2.8 h; solubility [2]: 53 µM (≈ 24.1 µg/mL); CL free [3]: 250 mL/min/kg; pEC50 [4]: 7.49

Q: What does the source list for `Cc1cc(C(=O)Nc2cccc(S(N)(=O)=O)c2)c(N2CCCCC2)nc1C`?
A: half-life [1]: 0.57 h; solubility [2]: 11 µM (≈ 4.27 µg/mL); CL free [3]: 2900 mL/min/kg; pEC50 [4]: 6.49

Q: With `Cc1cnc(N2CCCCC2)c(C(=O)Nc2cccc(S(N)(=O)=O)c2)c1` as the compound, how does the solubility [2] read?
A: The solubility was 14 µM (≈ 5.24 µg/mL).

Q: What about the pEC50 [4] of the same compound?
A: Its pEC50 is 4.85.

Q: With `NS(=O)(=O)c1cccc(NC(=O)c2nc3ccccc3nc2N2CCCCC2)c1` as the compound, how does the pEC50 [4] read?
A: The pEC50 was 6.96.

Q: With `NS(=O)(=O)c1cccc(NC(=O)c2cc3ccccc3nc2N2CCOCC2)c1` as the compound, how does the pEC50 [4] read?
A: Its pEC50 is 5.70.

Q: With `CC(C)(C)c1cc(C(=O)Nc2cccc(S(N)(=O)=O)c2)n(Cc2ccccc2)n1` as the compound, how does the pIC50 [5] read?
A: The pIC50 was under 4.52.

Q: And the pEC50 [6]?
A: The pEC50 was under 4.52.

Q: What about the pIC50 [7] of the same compound?
A: Its pIC50 is 7.10.

Q: And the pEC50 [8]?
A: The pEC50 was under 4.52.

Q: Which half-life [1] does the source give for `Cc1ccc(C(=O)Nc2cccc(S(N)(=O)=O)c2)c(N2CCCCC2)n1` here?
A: The half-life was 0.55 h.

Q: What about the solubility [2] of the same compound?
A: The solubility was 58 µM (≈ 21.7 µg/mL).

Q: And the CL free [3]?
A: The CL free was 1100 mL/min/kg.

Q: And the pEC50 [4]?
A: The pEC50 was 6.07.

Q: Which results are given for `NS(=O)(=O)c1cccc(NC(=O)c2cc(C(F)(F)F)cnc2N2CCC(F)(F)CC2)c1`?
A: Vd [9]: 1.3 L/kg; half-life [1]: 3.3 h; solubility [2]: 150 µM (≈ 69.7 µg/mL); half-life [10]: 8.8 h; pEC50 [11]: < 4.52; clearance [12]: 7.1 mL/min/kg; bioavailability [13]: 45%; concentration [14]: 6110 nM; pIC50 [15]: < 4.52; Tmax [16]: 2.5 h; concentration [17]: 2180 nM; CL free [3]: 100 mL/min/kg; Cp(f) [18]: 111 nM; Vd [19]: 1.68 L/kg; pEC50 [6]: < 4.52; Tmax [20]: 2.5 h; Vdu [21]: 33 L/kg; Cp(f) [22]: 948 nM; Vd [23]: 0.73 L/kg; Cp(f) [24]: 312 nM; CL free [25]: 62 mL/min/kg; pIC50 [26]: 4.57; Papp [27]: 28 ×10⁻⁶ cm/s; CL free [28]: 100 mL/min/kg; Vdu [29]: 30 L/kg; pEC50 [8]: < 4.52; Vdu [30]: 19 L/kg; bioavailability [31]: 82%; half-life [32]: 6.6 h; concentration [33]: 18600 nM; Tmax [34]: 1.5 h; pEC50 [4]: 7.38; clearance [35]: 0.96 mL/min/kg; clearance [36]: 3.15 mL/min/kg; bioavailability [37]: 77%; CL free [38]: 40 mL/min/kg; half-life [39]: 2.2 h

Q: With `CN1CCN(c2nc3ccccc3cc2C(=O)Nc2cccc(S(N)(=O)=O)c2)CC1` as the compound, how does the pEC50 [4] read?
A: The pEC50 was 4.70.

Q: Which half-life [1] does the source give for `NS(=O)(=O)c1cccc(NC(=O)c2cc(C(F)(F)F)cnc2N2CCCC3(CC3)C2)c1` here?
A: The half-life was 0.72 h.

Q: And the solubility [2]?
A: Its solubility is 68 µM (≈ 30.9 µg/mL).

Q: What about the CL free [3] of the same compound?
A: The CL free was 1800 mL/min/kg.

Q: What about the pEC50 [4] of the same compound?
A: The pEC50 was 7.47.

Q: Which results are given for `NS(=O)(=O)c1cccc(NC(=O)c2cc(C(F)(F)F)cnc2N2CCCCCC2)c1`?
A: half-life [1]: 0.62 h; solubility [2]: 120 µM (≈ 53.1 µg/mL); CL free [3]: 1800 mL/min/kg; pEC50 [4]: 7.92

Q: With `CN1CCN(c2nc3ccccc3nc2C(=O)Nc2cccc(S(N)(=O)=O)c2)CC1` as the compound, how does the pEC50 [4] read?
A: The pEC50 was under 4.52.

Q: With `NS(=O)(=O)c1cccc(NC(=O)c2cc(C(F)(F)F)cnc2N2CCCC2)c1` as the compound, how does the solubility [2] read?
A: Its solubility is 160 µM (≈ 66.3 µg/mL).

Q: And the pEC50 [4]?
A: The pEC50 was 5.70.

Q: Which half-life [1] does the source give for `NS(=O)(=O)c1cccc(NC(=O)c2cc(C(F)(F)F)cnc2N2CCCC(F)(F)CC2)c1` here?
A: Its half-life is 1.1 h.

Q: What about the solubility [2] of the same compound?
A: Its solubility is 110 µM (≈ 52.6 µg/mL).

Q: And the CL free [3]?
A: The CL free was 600 mL/min/kg.

Q: With `NS(=O)(=O)c1cccc(NC(=O)c2ccc(C(F)(F)F)nc2N2CCCCC2)c1` as the compound, how does the half-life [1] read?
A: The half-life was 0.89 h.

Q: And the solubility [2]?
A: The solubility was 91 µM (≈ 39 µg/mL).

Q: And the CL free [3]?
A: The CL free was 1300 mL/min/kg.

Q: What about the pEC50 [4] of the same compound?
A: The pEC50 was 6.54.
